Data on 2 compounds can be found in article PMC9329436, “Optimization of the 4-anilinoquin(az)oline scaffold as epidermal growth factor receptor (EGFR) inhibitors for chordoma utilizing a toxicology profiling assay platform” (Scientific Reports, 2022).

Molecules are shown by their SMILES. Read-outs that look alike come from different tables or passages of the source.

Common to all, as to assay type: biochemical
For test [1], the target named is T1, 320 wild-type protein kinases (Homo sapiens, UniProt P51955).
T1 sequence (P51955 1-445): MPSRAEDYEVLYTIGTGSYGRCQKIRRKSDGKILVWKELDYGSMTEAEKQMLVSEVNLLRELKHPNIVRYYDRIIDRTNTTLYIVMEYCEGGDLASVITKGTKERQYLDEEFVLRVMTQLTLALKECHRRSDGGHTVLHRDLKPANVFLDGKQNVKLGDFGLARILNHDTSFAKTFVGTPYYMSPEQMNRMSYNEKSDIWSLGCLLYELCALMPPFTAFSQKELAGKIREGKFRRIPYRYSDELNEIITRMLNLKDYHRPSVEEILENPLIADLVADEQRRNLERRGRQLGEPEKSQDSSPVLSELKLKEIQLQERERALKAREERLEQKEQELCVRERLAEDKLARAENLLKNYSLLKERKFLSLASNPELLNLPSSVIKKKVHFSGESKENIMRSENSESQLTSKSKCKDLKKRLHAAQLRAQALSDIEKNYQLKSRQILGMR
As to conditions: singlicate. An excerpt:
(§1) Table S4. Profiling of two compounds at two concentrations against 320 wild-type protein kinases; singlicate measurement; Residual activities (% of control).

The target in test [2] is T2, 320 wild-type protein kinases (Homo sapiens, UniProt P54762).
T2 sequence (P54762 18-984): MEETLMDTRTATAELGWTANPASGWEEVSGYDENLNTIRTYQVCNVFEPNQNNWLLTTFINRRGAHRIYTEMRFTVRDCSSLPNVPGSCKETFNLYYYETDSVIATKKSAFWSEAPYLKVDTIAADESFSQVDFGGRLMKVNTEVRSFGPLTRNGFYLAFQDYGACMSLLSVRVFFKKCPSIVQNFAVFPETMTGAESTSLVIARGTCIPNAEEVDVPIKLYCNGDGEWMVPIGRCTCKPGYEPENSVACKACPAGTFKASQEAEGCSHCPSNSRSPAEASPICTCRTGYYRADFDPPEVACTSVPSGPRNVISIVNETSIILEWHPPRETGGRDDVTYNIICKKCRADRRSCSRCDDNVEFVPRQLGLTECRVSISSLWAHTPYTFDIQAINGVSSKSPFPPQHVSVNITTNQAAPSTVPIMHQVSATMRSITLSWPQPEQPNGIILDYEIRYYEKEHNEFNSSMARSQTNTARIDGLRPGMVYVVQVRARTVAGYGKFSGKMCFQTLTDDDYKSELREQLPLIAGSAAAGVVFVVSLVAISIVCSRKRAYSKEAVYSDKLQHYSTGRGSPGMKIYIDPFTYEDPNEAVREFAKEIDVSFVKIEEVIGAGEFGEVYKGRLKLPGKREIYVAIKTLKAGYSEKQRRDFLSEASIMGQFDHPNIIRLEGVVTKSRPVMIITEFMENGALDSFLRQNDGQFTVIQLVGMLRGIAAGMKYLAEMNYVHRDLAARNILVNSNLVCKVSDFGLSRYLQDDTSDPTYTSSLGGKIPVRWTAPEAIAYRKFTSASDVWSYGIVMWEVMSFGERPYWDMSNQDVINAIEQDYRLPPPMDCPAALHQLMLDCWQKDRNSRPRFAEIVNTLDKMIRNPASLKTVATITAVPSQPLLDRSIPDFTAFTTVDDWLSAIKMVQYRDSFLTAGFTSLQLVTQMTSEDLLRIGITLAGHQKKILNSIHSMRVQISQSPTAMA
Particulars: singlicate.
Source text: as §1

Test [3] deals with 320 wild-type protein kinases (Homo sapiens, UniProt Q00535). As to conditions: singlicate.
320 wild-type protein kinases (Homo sapiens, UniProt Q00535), sequence (Q00535 whole entry): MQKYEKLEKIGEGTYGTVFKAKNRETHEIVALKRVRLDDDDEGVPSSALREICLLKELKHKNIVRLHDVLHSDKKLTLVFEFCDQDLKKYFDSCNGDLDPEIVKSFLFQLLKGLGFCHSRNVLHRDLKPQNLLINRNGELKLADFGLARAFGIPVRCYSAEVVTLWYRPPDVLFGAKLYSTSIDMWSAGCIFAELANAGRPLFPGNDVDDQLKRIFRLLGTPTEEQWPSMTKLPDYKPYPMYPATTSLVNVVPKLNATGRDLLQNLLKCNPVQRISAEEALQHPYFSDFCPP
Source text: as §1

Test [4] addresses T3, 320 wild-type protein kinases (Homo sapiens, UniProt Q99640).
T3 sequence (Q99640 1-499): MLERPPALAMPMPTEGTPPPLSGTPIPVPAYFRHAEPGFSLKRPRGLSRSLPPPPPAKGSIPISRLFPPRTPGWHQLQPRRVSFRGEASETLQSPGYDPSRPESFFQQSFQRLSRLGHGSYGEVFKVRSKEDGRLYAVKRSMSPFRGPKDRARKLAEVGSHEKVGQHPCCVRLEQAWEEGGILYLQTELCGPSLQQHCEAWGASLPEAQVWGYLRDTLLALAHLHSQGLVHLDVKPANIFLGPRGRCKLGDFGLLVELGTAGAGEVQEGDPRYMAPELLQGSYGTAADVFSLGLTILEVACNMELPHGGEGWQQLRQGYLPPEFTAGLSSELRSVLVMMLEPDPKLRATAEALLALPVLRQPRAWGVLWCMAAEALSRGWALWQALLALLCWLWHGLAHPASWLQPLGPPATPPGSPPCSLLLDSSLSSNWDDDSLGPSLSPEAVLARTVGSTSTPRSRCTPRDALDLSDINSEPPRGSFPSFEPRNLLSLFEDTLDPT
As to conditions: singlicate.
Source text: as §1

Test [5] addresses T4, 320 wild-type protein kinases (Homo sapiens, UniProt Q9NWZ3).
T4 sequence (Q9NWZ3 1-460): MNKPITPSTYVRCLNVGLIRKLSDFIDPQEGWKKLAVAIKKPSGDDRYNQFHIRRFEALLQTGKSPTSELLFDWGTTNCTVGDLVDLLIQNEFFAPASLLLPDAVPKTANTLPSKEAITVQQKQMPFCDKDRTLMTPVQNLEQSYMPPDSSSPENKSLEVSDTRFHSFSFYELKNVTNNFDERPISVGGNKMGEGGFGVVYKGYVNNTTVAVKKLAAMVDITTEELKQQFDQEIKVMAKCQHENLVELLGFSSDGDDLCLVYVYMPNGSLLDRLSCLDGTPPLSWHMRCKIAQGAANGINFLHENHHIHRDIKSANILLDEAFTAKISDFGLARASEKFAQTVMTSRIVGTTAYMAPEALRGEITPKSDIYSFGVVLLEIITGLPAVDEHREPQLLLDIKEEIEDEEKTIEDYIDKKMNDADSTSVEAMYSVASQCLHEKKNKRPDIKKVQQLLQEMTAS
As to conditions: IRAK4 (untagged), singlicate.
Source text: as §1

In the case of `C#Cc1cc(Nc2ncnc3cc(I)ccc23)ccc1Cl` [Compound 41], the Residual activity in test [1] (NEK2, 1.0E-06 M) is 82 % of control; in test [1] (NEK2, 1.0E-07 M) it was 96 % of control; in test [2] (EPHB1, 1.0E-06 M), 87 % of control; in test [2] (EPHB1, 1.0E-07 M), 103 % of control; in test [3] (CDK5/p25NCK, 1.0E-06 M) it was 100 % of control; in test [3] (CDK5/p25NCK, 1.0E-07 M), 119 % of control. Besides, the Residual activity in test [3] (CDK5/p35NCK, 1.0E-06 M) is reported as 86 % of control; in test [3] (CDK5/p35NCK, 1.0E-07 M) it was 87 % of control; in test [4] (PKMYT1, 1.0E-06 M) it was 79 % of control; in test [4] (PKMYT1, 1.0E-07 M), 88 % of control; in test [5] (1.0E-06 M) it was 84 % of control; in test [5] (1.0E-07 M) it was 96 % of control.
`C#Cc1cc(Nc2ncnc3cc(OC)c(OC)cc23)ccc1Cl` [Compound 45]: the Residual activity in test [1] (NEK2, 1.0E-06 M) is 86 % of control; in test [1] (NEK2, 1.0E-07 M), 92 % of control; in test [2] (EPHB1, 1.0E-06 M), 82 % of control; in test [2] (EPHB1, 1.0E-07 M), 86 % of control; in test [3] (CDK5/p25NCK, 1.0E-06 M), 103 % of control; in test [3] (CDK5/p25NCK, 1.0E-07 M), 98 % of control. Moreover, the Residual activity in test [3] (CDK5/p35NCK, 1.0E-06 M) was 88 % of control; in test [3] (CDK5/p35NCK, 1.0E-07 M), 88 % of control; in test [4] (PKMYT1, 1.0E-06 M) it was 95 % of control; in test [4] (PKMYT1, 1.0E-07 M), 114 % of control; in test [5] (1.0E-06 M), 69 % of control; in test [5] (1.0E-07 M) it was 90 % of control.
